According to patent US6987093B2 (priority 2001, dated 2006):

Tests used:
H. influenzae [1] = assay: Susceptibility testing of trial H. influenzae isolates; assay type: cell-based, Haemophilus influenzae; conditions: NCCLS criteria
From the text: Samples of middle ear fluid were split for storage at a central laboratory and cultured locally. All pathogens isolated locally were subcultured and sent to a central laboratory for confirmation and susceptibility testing, performed by Kirby-Bauer disk-diffusion or MIC testing according to NCCLS standards.
Cultures were taken for antimicrobial susceptibility testing and bacterial species were identified. Current NCCLS approved breakpoints for MICs and zone sizes were applied to all data irrespective of the breakpoint in use at the time of the study. The isolates from the clinical studies were sent to central laboratories for identification and susceptibility determination. The methods for agar diffusion disk tests are those recommended by NCCLS.
The susceptibility breakpoints for azithromycin were defined as follows: […]

H. influenzae [2] = assay: Study 95-001 otitis media caused by H. influenzae; assay type: in vivo, human; conditions: 3-day regimen (10 mg/kg/day); 13 patients; follow-up
Method: (§1) Specimens for culture and susceptibility testing were obtained from the infected ear by tympanocentesis within 24 h of start of therapy. […] However, the study was evaluated using the breakpoints in the most recent set of guidelines.
(§2) To be a bacteriological cure, the MITT subject had to have a positive culture from the middle ear for S. pneumoniae, H influenzae, or M. catarrhalis. Eradication was defined as presumed eradication of pretreatment pathogen(s) based on signs/symptoms or unavailability of culturable material. All evaluable patients had only one of the bacterial species present at baseline. There was no bacteriological response data collected for 95–001. However, the clinical outcome by bacterial pathogen at follow-up (approximately 28 days after first visit) was collected. For patients with S. pneumoniae as the baseline pathogen, all treatment arms yielded 100% clinical cure when the investigators' evaluations that were missing are not included in the analysis. […] The comparator drug, ceftriaxone, had no failures out of 9 patients.

M catarrhalis = assay: Study 95-001 otitis media, M. catarrhalis; assay type: in vivo, human; conditions: 3-day dosing regimen
Method: as §1, §2

With CC[C@H]1OC(=O)[C@H](C)[C@@H](O[C@H]2C[C@@](C)(OC)[C@@H](O)[C@H](C)O2)[C@H](C)[C@@H](O[C@@H]2O[C@H](C)C[C@H](N(C)C)[C@H]2O)[C@](C)(O)C[C@@H](C)CN(C)[C@H](C)[C@@H](O)[C@]1(C)O [Azithromycin, 9a-aza-9a-methyl-9-deoxo-9a-homoerythromycin A] the “susceptibility of isolated H. influenzae to azithromycin” value (H. influenzae [1]) was “susceptible”, the failures (H. influenzae [2]) was 2 and the “outcome at follow-up of the two M catarrhalis isolates” value (M catarrhalis) was “presumed bacteriological cures”.
